Assay results taken from patent US8273797B2, “Treating renal cancer using 4-[bis[2-[(methylsulfonyl)oxy]ethyl]amino]-2-methyl-benzaldehyde” (The United States of America, as represented by the …, priority 2005, dated 2012).
Values joined by “and” are separate entries in the source; they are usually repeats but may differ in a detail not shown here. Identical values can stand only once. “Also recorded” adds a separate entry of the source.

Tests used:
RCC tumor cell lines = conditions: cited from earlier work
xenograft = conditions: mouse, in vivo; cited from earlier work
[1] = test system: A498 human renal tumor xenografts; assay: Subcutaneous A498 xenograft tumor model; assay type: in vivo, athymic nude mice; conditions: NSC-281612 54 mg/kg Q4Dx3 from day 4 post implantation, compared with NSC-281817 120 mg/kg
Method: Tumor cells (e.g., A498 and RXF-393) were derived from established tumors maintained by serial passage in mice for a maximum of 10 passages. […] Male mice were used in all experiments. All animals were provided by NCI contractors at the NCI-Frederick production facility or Taconic Laboratories (Germantown, N.Y.).
(§1) Intraperitoneal drug treatment schedules were established from the tumor doubling times because pharmacological data were not available. The dose levels were determined by establishing a single injection maximum tolerated dose (MTD) from which the experimental doses were calculated as: dose (mg/kg)=[(1.5×MTD)/no. of doses to be given]. Each experiment consisted of 20 control mice (based on statistical need) that received dosing vehicle (saline+0.05% Tween 80) on the same schedule as used for the test articles. Each treated group contained six mice. Tumor volumes were measured two to three times weekly and the tumor weights were calculated using the formula for a prolate ellipsoid: tumor weight (mg)={[length (in mm)]×[width (in mm)]^2}/2. The control tumors reached 500 mm^3 in 27 days for A498 and 12 days for RXF-393.
Human tumor xenografts were generated by injection of 1×10^7 A498 tumor cells subcutaneously into athymic nude male mice. […] The tumor weight was calculated every fourth day beginning at day 7. […]

[2] = test system: RXF-393 human renal tumor cells; assay: Orthotopic intrarenal RXF-393 tumor model; assay type: in vivo, mice; conditions: for Median Tumor Weight (mg, Day 23) / T/C (%) / Median Tumor Weight (mg, Day 27): Rt. IV
[3] = Toxicity (mortality, body weight loss, tolerability) in mice bearing intrarenal RXF-393 tumors; assay type: in vivo
Method: as §1
RXF-393 cells were injected directly into the caudal pole of the kidney on Day 0. The inoculated kidney was monitored for tumor growth in treated versus control mice by collecting and weighing the kidneys on day 25 post-implantation. In a preliminary experiment, NSC-281612 was administered intraperitoneally (IP) every fourth day for a total of 5 treatments (Q4D×5) starting 4 days after tumor implantation. […] In this study, NSC-281612 was assessed at 25 mg/kg (Group 2), 16.8 mg/kg (Group 3) and 11.3 mg/kg (Group 4). Due to toxicity, the 25 mg/kg dose was lowered to 8.3 mg/kg and only 4 doses were administered to Groups 2 and 3 (see Table 1).
To assess the impact of drug administration route, an experiment was conducted in which NSC-281612 was administered at doses of 8 mg/kg, 4 mg/kg and 2 mg/kg given intravenously (IV) on a Q4D×5 schedule with the first treatment given on day 4 post-tumor implantation. […] See, Table 2 for results and FIG. 6 for individual renal tumor weights for mice administered control only (vehicle), 8 mg/kg, 4 mg/kg, or 2 mg/kg intravenously on a Q4D×5 schedule.

Dunning rat leukemia = conditions: Elderfield, private communication; no specific data disclosed; cited from earlier work
[4] = 2 mg/kg/dose IV Q4Dx5 from day 4
[5] = 4 mg/kg/dose IV Q4Dx5 from day 4
[6] = 8 mg/kg/dose IV Q4Dx5 from day 4
[7] = Group 2: 25 mg/kg Q4Dx3 and a final dose of 8.3 mg/kg IP

Structure (SMILES): Cc1cc(N(CCOS(C)(=O)=O)CCOS(C)(=O)=O)ccc1C=Nc1ccc(-c2csc(-c3ccccc3)n2)c(Cl)c1 [compound 281613]
- in vitro activity against RCC tumor cell lines (RCC tumor cell lines): having in vitro activity
- antitumor activity in xenograft-bearing mice (xenograft): only modest

Structure (SMILES): CS(=O)(=O)OCCN(CCOS(C)(=O)=O)c1ccc(C=Nc2ccc(-c3csc(COc4ccccc4)n3)cc2)cc1 [compound 280074]
- in vitro activity against RCC tumor cell lines (RCC tumor cell lines): having in vitro activity
- antitumor activity in xenograft-bearing mice (xenograft): only modest

Structure (SMILES): Cc1cc(N(CCOS(C)(=O)=O)CCOS(C)(=O)=O)ccc1C=Nc1ccc(-c2nc(Cc3ccccc3)sc2C)cc1 [NSC-281817]
- in vitro activity against RCC tumor cell lines (RCC tumor cell lines): having in vitro activity
- antitumor activity in xenograft-bearing mice (xenograft): only modest

Structure (SMILES): Cc1cc(N(CCOS(C)(=O)=O)CCOS(C)(=O)=O)ccc1C=O [NSC-281612, 4-[bis[2-[(methylsulfonyl)oxy]ethyl]amino]-2-methyl-benzaldehyde]
- median tumor weight (effectiveness in limiting tumor weight) [1]: at least as effective in limiting tumor weight as NSC-281617
- reduction in tumor mass ([2]; 2 mg/kg/dose IV Q4Dx5): did not achieve a level of statistical significance
- Day 22 Tumor Weight average [2, 4]: 270 mg
- Day 22 Tumor Weight median [2, 4]: 284 mg
- Median Tumor Weight (mg, Day 23) ([2]; 3.4 mg/kg/dose, QDx5, D5): 11.5 mg
- T/C (%) ([2]; 3.4 mg/kg/dose, QDx5, D5, Day 23): 3%
- Day 22 Tumor Weight average [2, 5]: 31 mg
- Day 22 Tumor Weight median [2, 5]: 7 mg
- tumor free animals ([2]; 5 mg/kg/dose IP Q4Dx5): no tumor free animals
- tumor mass compared to the controls ([2]; 5 mg/kg/dose IP Q4Dx5): significant reduction in tumor mass
- Median Tumor Weight (mg, Day 23) ([2]; 5 mg/kg/dose, QDx5, D5): 0 mg
- T/C (%) ([2]; 5 mg/kg/dose, QDx5, D5, Day 23): 0%
- Median Tumor Weight (mg, Day 23) ([2]; 7.5 mg/kg/dose, QDx5, D5): 0 mg
- T/C (%) ([2]; 7.5 mg/kg/dose, QDx5, D5, Day 23): 0%
- Day 22 Tumor Weight average [2, 6]: 1 mg
- Day 22 Tumor Weight median [2, 6]: 0 mg
- reduction in tumor weights ([2]; 8 mg/kg/dose and 4 mg/kg/dose IV Q4Dx5): statistically significant reductions in the tumor weights
- Median Tumor Weight (mg, Day 27) ([2]; 25 mg/kg/dose, QDx1, D1O): 0 mg
- T/C (%) ([2]; 25 mg/kg/dose, QDx1, D1O, Day 27): 0%
- Median Tumor Weight (mg, Day 27) ([2]; 25 mg/kg/dose, QDx1, D5): 340 mg
- T/C (%) ([2]; 25 mg/kg/dose, QDx1, D5, Day 27): 94%
- Median Tumor Weight (mg, Day 27) ([2]; 25 mg/kg/dose, QDx1, D15): 1 mg
- T/C (%) ([2]; 25 mg/kg/dose, QDx1, D15, Day 27): 0%
- tumor burden at day 25 post-implantation ([2]; IP Q4Dx5 starting day 4, 25, 16.8 and 11.3 mg/kg (Groups 2-4)): markedly reduced the tumor burden; also recorded: active against intrarenal RXF-393 tumors at several doses
- decrease in tumor weight ([2]; daily dose for five sequential days, doses as low as 3.4 mg/kg/dose): statistically significant decrease in tumor weight
- efficacy of single dose ([2]; single 25 mg/kg dose on day 5 post-tumor implantation): ineffective
- animals with no detectable tumor ([2]; single 25 mg/kg dose on day 10 or 15 post-tumor implantation): seven often
- tolerability ([3]; 8, 4 and 2 mg/kg IV Q4Dx5 from day 4): well tolerated
- average weight loss [3, 7]: 27%
- mortality [3, 7]: no mortality
- mortality ([3]; Group 3: 16.8 mg/kg Q4Dx5 IP, 16.8 mg/kg): no mortality and 16.8 mg NSC-281612/kg Q4Dx5 IP. There was no mortality
- mortality ([3]; Group 4: 11.3 mg/kg Q4Dx5 IP, 11.3 mg/kg): no mortality and 11.3 mg NSC-281612/kg Q4Dx5 IP. There was no mortality
- activity against Dunning rat leukemia (Dunning rat leukemia): possesses activity against Dunning rat leukemia
